Data: patent US20240365784A1, “AZOLE COMPOUNDS FOR CONTROLLING INVERTEBRATE PESTS” (FMC Corporation, priority 2021, published 2024)

What was measured:
Test in all cases: whole plant or invertebrate
Format in all cases: in vivo
[1] = test system: corn planthopper (Peregrinus maidis (Ashmead)); settings: 144 h, corn plant, nymphs, assessed after 6 days; for mortality at 10 ppm: sprayed at 10 ppm; for mortality at 50 ppm: sprayed at 50 ppm
Protocol: (§1) Test compounds were formulated using a solution containing 10% acetone, 90% water and 300 ppm Activator 90® non-ionic surfactant (Loveland Products, Loveland, Colorado, USA). The formulated compounds were applied in 1 mL of liquid through an atomizer nozzle positioned 1.27 cm (0.5 inches) above the top of each test unit. Test compounds were sprayed at the rates indicated, and each test was replicated three times.
For evaluating control of corn planthopper (Peregrinus maidis (Ashmead)) through contact and/or systemic means, the test unit consisted of a small open container with a 3-4-day-old corn (maize) plant inside. White sand was added to the top of the soil prior to application of the test compound.
Test compounds were formulated and sprayed at 250 and/or 50 ppm and/or 10 ppm. After spraying of the formulated test compound, the test units were allowed to dry for 1 h before they were post-infested with ˜15-20 nymphs (18-to-21-day-old). A black, screened cap was placed on the top of each test unit, and the test units were held for 6 days in a growth chamber at 22-24° C. and 50-70% relative humidity. Each test unit was then visually assessed for insect mortality.

[2] = test system: cotton melon aphid (Aphis gossypii (Glover)); settings: 144 h, okra plant, assessed after 6 days; for mortality at 50 ppm: sprayed at 50 ppm; for mortality at 10 ppm: tested at 10 ppm
Protocol: as §1
For evaluating control of cotton melon aphid (Aphis gossypii (Glover)) through contact and/or systemic means, the test unit consisted of a small open container with a 5-day-old okra plant inside. This was pre-infested with 30-40 insects on a piece of leaf according to the cut-leaf method, and the soil of the test unit was covered with a layer of sand.
[…] After spraying, the test units were maintained in a growth chamber for 6 days at 19° C. and 70% relative humidity. Each test unit was then visually assessed for insect mortality.

[3] = test system: sweetpotato whitefly (Bemisia tabaci (Gennadius)); settings: 312 h, cotton plant infested with eggs, assessed after 13 days; for mortality at 50 ppm: sprayed at 50 ppm; for mortality at 10 ppm: tested at 10 ppm
Protocol: as §1
For evaluating control of the sweetpotato whitefly (Bemisia tabaci (Gennadius)) through contact and/or systemic means, the test unit consisted of a small open container with a 12-14-day-old cotton plant inside. Prior to the spray application, both cotyledons were removed from the plant, leaving one true leaf for the assay. Adult whiteflies were allowed to lay eggs on the plant and then were removed from the test unit. Cotton plants infested with at least 15 eggs were submitted to the test for spraying.
[…] After spraying, the test units were allowed to dry for 1 hour. The cylinders were then removed, and the units were taken to a growth chamber and held for 13 days at 28° C. and 50-70% relative humidity. Each test unit was then visually assessed for insect mortality.

[4] = test system: green peach aphid (Myzus persicae (Sulzer)); settings: 144 h, sprayed at 50 ppm, radish plant, assessed after 6 days
Protocol: as §1
For evaluating control of green peach aphid (Myzus persicae (Sulzer)) through contact and/or systemic means, the test unit consisted of a small open container with a 12-15-day-old radish plant inside. This was pre-infested by placing on a leaf of the test plant 30-40 aphids on a piece of leaf excised from a culture plant (cut-leaf method). The aphids moved onto the test plant as the leaf piece desiccated. After pre-infestation, the soil of the test unit was covered with a layer of sand.
Test compounds were formulated and sprayed at 250 and/or 50 ppm. After spraying of the formulated test compound, each test unit was allowed to dry for 1 hour and then a black, screened cap was placed on top. The test units were held for 6 days in a growth chamber at 19-21° C. and 50-70% relative humidity. Each test unit was then visually assessed for insect mortality.

SMILES | mortality at 10 ppm [1] [%] | mortality at 50 ppm [1] [%] | mortality at 50 ppm [2] [%] | mortality at 10 ppm [2] [%] | mortality at 50 ppm [3] [%] | mortality at 50 ppm [4] [%] | mortality at 10 ppm [3] [%]
Fc1cncc(-c2ncco2)c1Cc1ccc(OC(F)(F)F)cc1 [Compound 41] | ≥ 80 | ≥ 80 | ≥ 80 | ≥ 80 | – | – | –
[O-][S+](c1ccc(Cc2c(F)cncc2-n2nccn2)cc1)C(F)(F)F (stereo not drawn) [Compound 18] | – | ≥ 80 | ≥ 80 | – | ≥ 70 | ≥ 80 | –
CC(c1ccc(SC(F)(F)F)cc1)c1c(F)cncc1-n1cncn1 (stereo not drawn) [Compound 52] | – | ≥ 80 | ≥ 80 | – | ≥ 70 | ≥ 80 | –
FC(F)(F)Oc1ccc(Cc2ccncc2-n2nccn2)cc1 [Compound 16] | – | ≥ 80 | ≥ 80 | ≥ 80 | ≥ 70 | – | –
Fc1cc(Cc2c(F)cncc2-n2nccn2)ccc1OC(F)(F)F [Compound 66] | ≥ 80 | ≥ 80 | ≥ 80 | ≥ 80 | ≥ 70 | – | –
FC(F)(F)Oc1ccc(Cc2c(I)cncc2-n2nccn2)cc1 [Compound 17] | – | – | ≥ 80 | – | ≥ 70 | – | –
CCC(c1ccc(OC(F)(F)F)cc1)c1c(F)cncc1-n1nccn1 (stereo not drawn) [Compound 60] | – | ≥ 80 | ≥ 80 | – | ≥ 70 | – | ≥ 70
FC(F)(F)Oc1ccc(Cc2c(Br)cncc2-n2nccn2)cc1 [Compound 15] | – | – | ≥ 80 | – | ≥ 70 | ≥ 80 | –
FC(F)(F)Oc1ccc(Cc2c(Cl)cncc2-n2nccn2)cc1Cl [Compound 71] | ≥ 80 | ≥ 80 | ≥ 80 | – | ≥ 70 | ≥ 80 | ≥ 70
FC(F)(F)Sc1ccc(Cc2c(Cl)cncc2-n2ccnn2)cc1 [Compound 6] | – | ≥ 80 | – | – | ≥ 70 | – | –
CC(c1ccc(SC(F)(F)F)cc1)c1c(Cl)cncc1-n1nccn1 (stereo not drawn) [Compound 14] | – | – | ≥ 80 | – | ≥ 70 | ≥ 80 | –
[O-][S+](c1ccc(Cc2c(Cl)cncc2-n2nccn2)cc1)C(F)(F)F (stereo not drawn) [Compound 22] | – | – | ≥ 80 | – | ≥ 70 | ≥ 80 | –
CC(c1ccc(SC(F)(F)F)cc1)c1c(F)cncc1-c1nccs1 (stereo not drawn) [Compound 54] | ≥ 80 | ≥ 80 | ≥ 80 | – | ≥ 70 | – | –
FC(F)Oc1ccc(Cc2c(Cl)cncc2-n2nccn2)cc1 [Compound 46] | ≥ 80 | ≥ 80 | ≥ 80 | – | ≥ 70 | – | ≥ 70
Fc1cncc(-c2nccs2)c1Cc1ccc(OC(F)(F)F)cc1 [Compound 40] | ≥ 80 | ≥ 80 | ≥ 80 | ≥ 80 | ≥ 70 | – | ≥ 70
Fc1cc(Cc2c(Cl)cncc2-n2nccn2)ccc1C(F)(F)F [Compound 72] | ≥ 80 | ≥ 80 | ≥ 80 | – | ≥ 70 | ≥ 80 | –

SMILES | mortality at 10 ppm [1] [%] | mortality at 50 ppm [1] [%] | mortality at 50 ppm [2] [%] | mortality at 10 ppm [2] [%] | mortality at 50 ppm [3] [%] | mortality at 50 ppm [4] [%] | mortality at 10 ppm [3] [%]
FC(F)(F)Sc1ccc(Cc2ccncc2-n2nccn2)cc1 [Compound 23] | ≥ 80 | ≥ 80 | ≥ 80 | – | ≥ 70 | ≥ 80 | –
CC(c1ccc(OC(F)(F)F)cc1)c1c(F)cncc1-n1nccn1 (stereo not drawn) [Compound 9, 3-fluoro-5-(triazol-2-yl)-4-[1-[4-(trifluoromethoxy)phenyl]ethyl]pyridine] | ≥ 80 | ≥ 80 | ≥ 80 | ≥ 80 | ≥ 70 | ≥ 80 | –
CC(c1ccc(SC(F)(F)F)cc1)c1c(F)cncc1-n1cccn1 (stereo not drawn) [Compound 50] | – | ≥ 80 | ≥ 80 | – | – | – | –
Fc1cncc(-c2ncco2)c1Cc1ccc(SC(F)(F)F)cc1 [Compound 30] | ≥ 80 | ≥ 80 | ≥ 80 | ≥ 80 | – | – | –
CC(c1ccc(SC(F)(F)F)cc1)c1c(Cl)cncc1-n1cncn1 (stereo not drawn) [Compound 51] | – | ≥ 80 | ≥ 80 | – | ≥ 70 | ≥ 80 | –
Fc1cncc(-n2nccn2)c1Cc1cccc(OC(F)(F)C(F)F)c1 [Compound 65] | – | ≥ 80 | ≥ 80 | – | – | – | –
CC(c1ccc(SC(F)(F)F)cc1)c1c(F)cncc1-n1ccnn1 (stereo not drawn) [Compound 11] | – | ≥ 80 | ≥ 80 | – | – | – | –
FC(F)(F)Sc1ccc(Cc2c(Cl)cncc2-c2nccs2)cc1 [Compound 35] | – | ≥ 80 | ≥ 80 | – | ≥ 70 | – | –
FC(F)Oc1ccc(Cc2c(Cl)cncc2-n2cccn2)cc1 [Compound 45] | ≥ 80 | ≥ 80 | ≥ 80 | – | ≥ 70 | – | –
FC(F)(F)Oc1ccc(Cc2c(Cl)cncc2-n2nccn2)cc1Br [Compound 68] | ≥ 80 | ≥ 80 | – | – | ≥ 70 | ≥ 80 | ≥ 70
CC(c1ccc(OC(F)(F)F)cc1)c1c(F)cncc1-c1nccs1 (stereo not drawn) [Compound 63] | ≥ 80 | ≥ 80 | ≥ 80 | ≥ 80 | ≥ 70 | ≥ 80 | –
Fc1cc(Cc2c(F)cncc2-n2nccn2)ccc1C(F)(F)F [Compound 73] | ≥ 80 | ≥ 80 | ≥ 80 | ≥ 80 | – | – | –
Fc1cncc(-n2nccn2)c1Cc1ccc(OC(F)(F)F)c(Br)c1 [Compound 69] | ≥ 80 | ≥ 80 | ≥ 80 | – | ≥ 70 | ≥ 80 | –
CCC(c1ccc(SC(F)(F)F)cc1)c1c(F)cncc1-n1nccn1 (stereo not drawn) [Compound 57] | ≥ 80 | ≥ 80 | ≥ 80 | – | ≥ 70 | – | ≥ 70
FC(F)(F)Sc1ccc(Cc2c(Cl)cncc2-c2ncco2)cc1 [Compound 37] | – | ≥ 80 | – | – | – | – | –
FC(F)(F)Oc1ccc(Cc2c(Cl)cncc2-n2nccn2)cc1 [Compound 12] | ≥ 80 | ≥ 80 | ≥ 80 | – | – | ≥ 80 | –
